Measured values reported in publication PMC6744417, “ALKBH overexpression in head and neck cancer: potential target for novel anticancer therapy” (Scientific Reports, 2019).
Like-named read-outs stand apart in the source and are kept apart here.

How the values were obtained:
U87 cells [1] = experiment: Alamar Blue viability assay, U87; assay type: cell-based, human; settings: 48 h of treatment
Method: (§1) Exponentially growing cells at the density of 3 × 10^3 cells/well were seeded onto a 96-well plate, cultured for 18 h followed by the respective treatment of antraquinones or its derivatives in various concentrations or 34 nM RNA interference of ALKBH proteins, and then cultured for a an additional 48 h. Alamar Blue (Invitrogen) viability assay was performed according to manufacturer’s protocol: after 4 h incubation, emission at 590 nm was measured with excitation at 560 nm using a scanning multiwall multimode spectrophotometer (DTX 880, Beckman Coulter). The experiment was carried out at least three times, with three replicates for each inhibitor concentration. After background subtraction, inhibition rates, IC50, values were calculated as the concentration of the component that inhibits cell growth by 50%. All the calculations were done using Origin 9.0 software.

BICR18 cells = experiment: Alamar Blue viability assay, BICR18; assay type: cell-based, human; settings: 48 h of treatment
Method: (§2) Alamar Blue (Invitrogen) viability assay was performed according to manufacturer’s protocol: after 4 h incubation, emission at 590 nm was measured with excitation at 560 nm using a scanning multiwall multimode spectrophotometer (DTX 880, Beckman Coulter). The experiment was carried out at least three times, with three replicates for each inhibitor concentration. […] All the calculations were done using Origin 9.0 software.

ALKBH3 [2] = biological target: T1, ALKBH3 (Homo sapiens, UniProt Q96Q83); experiment: Thermal shift assay for ligand binding, ALKBH3 holo form; settings: ALKBH3 holo form (2OG, Mn2+), 5 µM compound; result in words
T1 construct: made in house
T1 sequence (Q96Q83 1-286): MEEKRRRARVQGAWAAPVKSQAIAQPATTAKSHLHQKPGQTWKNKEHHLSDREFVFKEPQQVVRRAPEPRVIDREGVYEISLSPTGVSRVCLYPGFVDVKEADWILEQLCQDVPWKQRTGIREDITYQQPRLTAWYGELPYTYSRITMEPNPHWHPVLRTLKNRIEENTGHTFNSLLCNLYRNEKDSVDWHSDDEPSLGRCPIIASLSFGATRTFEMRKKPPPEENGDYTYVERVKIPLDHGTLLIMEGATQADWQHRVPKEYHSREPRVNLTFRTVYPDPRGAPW
Method: (§3) We tested the affinity of our newly synthesized anthraquinones, 7-chloroemodin and 5,7-dichloroemodin, (Fig. S13) for ALKBH3 and FTO and assessed their effect on the enzymatic activity of targeted proteins using the thermal shift assay (TSA). The thermodynamic parameters for thermal denaturation of both proteins were measured for their holo forms, in the presence of 2OG and Mn^2+, an analogue of Fe^2+.
(§4) The assay was developed previously to monitor ligand binding to AlkB[36]. Fluorescence experiments were performed using a Varian Cary Eclipse spectrofluorimeter. Emission was monitored at 345 nm (excitation at 280 nm) over a temperature range of 40-95 °C with heating rate of 1 °C/min. The protein samples were dissolved in HEPES buffer at pH 7.5 with 2 mM dithiotreitol (DTT) and 150 mM NaCl to a final concentration of 1.2 µM. The process of thermal unfolding was performed at a concentration of 5 µM of the tested compound, either in the presence or absence of cofactors (50 µM 2OG and 100 µM Mn(II)). The thermal unfolding of the holo form of the protein was always monitored and further used as the reference. All the calculations were performed using Origin 9.0 software, assuming the simplest model of two-state (Folded-Unfolded) transition.

FTO [3] = biological target: T2, FTO (Homo sapiens, UniProt Q9C0B1); experiment: Thermal shift assay for ligand binding, FTO holo form; settings: FTO holo form (2OG, Mn2+), 5 µM compound; holo form alone 52.8 ± 0.6 °C
T2 construct: His; made in house; host or cells: E. coli BL-21
Method: as §3, §4

EUFA30 cells [4] = experiment: Alamar Blue viability assay, EUFA30; assay type: cell-based, human; settings: normal fibroblast cells, 48 h of treatment
Method: as §1

EcAlkB = biological target: T3, EcAlkB (Escherichia coli, UniProt P05050); experiment: In vitro inhibition assay of demethylation activity (HPLC), AlkB; assay type: biochemical
T3 construct: made in house
Method: (§5) For EcAlkB, ALKBH3, and FTO, the inhibitory effect was further quantified by measuring inhibition of demethylation activity in vitro (Fig. 6D). […]. The reactions were carried out for 30 min at 37 °C in 20 µl of 50 mM Tris-HCl pH 7.5 with 1 mM DTT, 100 µM Fe(NH4)2(SO4)2, 50 µM 2OG, and 100 nM of AlkB or ALKBH3, 25 µM of substrate, and different concentrations of indicated inhibitors. […]. Modified and unmodified (repaired) products were separated and analyzed on Knauer HPLC system with C18 column (Waters NovaPak). The mobile phase binding buffer (20 mM TEAA) and elution buffer (acetonitrile) were mixed and flown at a rate of 1 ml/min. The detection wavelength was 260 nm.

HeLa cells [5] = experiment: Flow cytometry Annexin V-FITC / propidium iodide, HeLa; assay type: cell-based, human; settings: 48 h, untreated control 10.8%
Method: (§6) Silencing was performed using the lipofectamine RNAiMAX reagent (Invitrogen) and ready-to-use siRNA mixture (Santa Cruz Biotechnology) composed of at least two different siRNAs targeting the same gene, to knock down ALKBH1, 2, 3, 4, 5, 8, and FTO (Supplementary Table 2). 1 × 10^6 cells were seeded onto a 100 mm diameter dishes. After 24 h of incubation, siRNAs mixtures (with lipofectamine, in OPTI-MEM medium) were added. After 48 h, cells were collected for WB or flow cytometry analysis. For WB analysis, adherent cells were rinsed three times with PBS, scraped, and centrifuged (800 x g, 10 min, 4 °C). Next, cells were re-suspended in 100 μL RIPA buffer with a 1 x mammalian protease inhibitor cocktail (Sigma-Aldrich). The resulting lysates were spun down at 30 130 x g to remove insoluble particles, assayed for protein content using the Bradford assay, and loaded onto the SDS-PAGE at the protein amount of 20 μg per line. The strength of WB signals corresponding to the particular ALKBHs were calculated by densitometry. The expression changes by 30% were considered as significant.
(§7) The Annexin V-FITC apoptosis detection kit (ApoAlert Annexin V-FITC Apoptosis Kit, TaKaRa) was used to detect apoptosis by flow cytometry. Cells were seeded at 6-well plates at concentration of 5 × 10^5 cells/well, cultured for 18 h, and then the tested agent was applied for the indicated periods. Afterward, cells were washed with PBS, resuspended in binding buffer, and anti-Annexin V FITC-conjugated antibody and propidium iodide were added to 100 µl aliquots. The mixtures were incubated for 15 min at room temperature, supplemented with binding buffer to 500 µl, and processed using BD FACSCalibur (BD Biosciences). Data were analyzed in Flowing Software version 2.5.1 (Flowing Software, http://www.uskonaskel.fi/flowingsoftware).

FTO [6] = biological target: T2, FTO; experiment: FTO N6meA demethylation Chemiluminescent Assay Kit; assay type: biochemical; settings: FTO 330 nM; N6meA on RNA; read-out: IC50 (Enzyme: FTO 330nM; Substrate: N6meA)
Method: To measure the activity of obtained by us FTO protein, Chemiluminescent Assay Kit was used (BPS Bioscience). As a substrate, we used N^6meA modification on RNA. The reactions were carried out according to the manufacturer’s protocol. Chemiluminescence was measured using the plate reader Synergy HT (Bio Tek) with 1 sec of integration time and 100 ms of delay after plate movement.

HEK293 cells = experiment: Alamar Blue viability assay, HEK293; assay type: cell-based, human; settings: 48 h of treatment
Method: as §2

ALKBH3 [7] = biological target: T1, ALKBH3; experiment: In vitro inhibition assay of demethylation activity (HPLC), ALKBH3; assay type: biochemical
Method: as §5

HeLa cells [8] = experiment: Alamar Blue viability assay, HeLa; assay type: cell-based, human; settings: 48 h of treatment
Method: as §2

HeLa cells [9] = system: HeLa cells; set-up: method as in ref 32 (Varela-Ramirez and co-workers 2011); settings: ref 32 (Varela-Ramirez and co-workers 2011); cited from earlier work
U87 cells [10] = system: U87 cells; set-up: method as in ref 14 (Li and co-workers 2016); settings: ref 14 (Li and co-workers 2016); cited from earlier work
EUFA30 cells [11] = experiment: Flow cytometry Annexin V-FITC / propidium iodide, EUFA30; assay type: cell-based, human; settings: EUFA30, 500 μM, 48 h
Method: as §6, §7

ALKBH3 [12] = system: ALKBH3; set-up: method as in ref 14 (Li and co-workers 2016); settings: ref 14 (Li and co-workers 2016); read-out: IC50 against ALKBH3; cited from earlier work
[13] = EcAlkB 100 nM, 3meC on TT(3meC)TT pentamer, 30 min 37 °C, read-out: IC50 (Enzyme: EcAlkB 100nM; Substrate: 3meC)
[14] = ALKBH3 100 nM, 3meC on TT(3meC)TT pentamer, 30 min 37 °C, read-out: IC50 (Enzyme: ALKBH3 100nM; Substrate: 3meC)

T2 sequence (Q9C0B1 whole entry): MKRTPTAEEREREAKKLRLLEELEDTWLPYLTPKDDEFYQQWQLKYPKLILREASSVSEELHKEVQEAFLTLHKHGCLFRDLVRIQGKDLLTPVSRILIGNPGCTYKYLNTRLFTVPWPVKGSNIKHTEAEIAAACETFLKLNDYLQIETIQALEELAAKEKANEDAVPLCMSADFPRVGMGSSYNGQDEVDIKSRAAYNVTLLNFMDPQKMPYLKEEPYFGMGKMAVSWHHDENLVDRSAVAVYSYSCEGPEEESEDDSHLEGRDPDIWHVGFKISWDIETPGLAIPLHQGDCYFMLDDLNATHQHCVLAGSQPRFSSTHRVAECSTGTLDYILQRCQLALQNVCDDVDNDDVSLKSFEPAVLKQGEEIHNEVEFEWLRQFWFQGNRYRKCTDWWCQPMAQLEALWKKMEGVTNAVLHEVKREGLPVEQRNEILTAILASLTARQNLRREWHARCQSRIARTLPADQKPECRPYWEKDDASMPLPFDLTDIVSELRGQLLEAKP
T3 sequence (P05050 whole entry): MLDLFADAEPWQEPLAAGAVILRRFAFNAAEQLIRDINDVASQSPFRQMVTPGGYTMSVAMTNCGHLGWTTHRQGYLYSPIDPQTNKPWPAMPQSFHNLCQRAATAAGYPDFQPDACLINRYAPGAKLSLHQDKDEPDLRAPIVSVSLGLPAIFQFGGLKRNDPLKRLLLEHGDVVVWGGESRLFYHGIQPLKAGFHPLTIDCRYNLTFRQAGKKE

SMILES | binding to ALKBH3 judged by increase of melting temperature (ALKBH3 [2]) | IC50 (EcAlkB; [13]) [µM] | IC50 (FTO [6]) [µM] | IC50 (ALKBH3 [7]; [14]) [nM] | IC50 (U87 cells [1]; Homo sapiens, U-87 MG) [µM] | IC50 (BICR18 cells; Homo sapiens) [µM] | IC50 (EUFA30 cells [4]; Homo sapiens) [µM] | IC50 (EcAlkB) [µM] | IC50 (HEK293 cells; Homo sapiens, HEK293) [µM] | IC50 (HeLa cells [8]; Homo sapiens, HeLa) [µM] | also measured
Cc1c(Cl)c(O)c2c(c1Cl)C(=O)c1cc(O)cc(O)c1C2=O [5,7-Dichloroemodin] | slightly more weakly | 16.4 | 42.1 ± 6.5 | 176000 ± 6000 | – | – | – | – | – | – | IC50 (U87 cells [1]): 158 µM; IC50 (BICR18 cells): 39.8 µM; melting temperature of FTO-ligand complex (FTO [3]): 67.4 ± 0.1 °C; IC50 (EUFA30 cells [4]): 102 µM; number of necrotic HeLa cells (HeLa cells [5]; 25 μM): 69.2%; number of necrotic HeLa cells (HeLa cells [5]; 100 μM): 83.1%; IC50 (HEK293 cells): 87.3 µM; IC50 (HeLa cells [8]): 10.6 µM
Cc1cc2c(c(O)c1Cl)C(=O)c1c(O)cc(O)cc1C2=O [7-Chloroemodin] | – | 19.8 | 28.1 | 116000 ± 7000 | – | – | – | – | – | – | IC50 (U87 cells [1]): 120 µM; IC50 (BICR18 cells): 99.5 µM; melting temperature of FTO-ligand complex (FTO [3]): 71.5 ± 0.2 °C; IC50 (EUFA30 cells [4]): 163 µM; number of necrotic HeLa cells (HeLa cells [5]; 25 μM): 18.8%; number of necrotic HeLa cells (HeLa cells [5]; 100 μM): 37.6%; IC50 (HEK293 cells): 180 µM; IC50 (HeLa cells [8]): 33.8 µM
O=C1c2cccc(O)c2C(=O)c2c(O)cc(CO)cc21 [Aloe-Emodin] | slightly more weakly | – | 52 ± 12.6 | 8800 | > 1000 | 57.5 | 380 | 230 ± 100 | > 1000 | 26 | cytotoxicity against U87 (U87 cells [1]): not cytotoxic; cytotoxicity against HEK293 (HEK293 cells): not cytotoxic
Cc1c(C(=O)O)c(O)cc2c1C(=O)c1c(O)c([C@@H]3O[C@H](CO)[C@@H](O)[C@H](O)[C@H]3O)c(O)c(O)c1C2=O [Carminic Acid, Carminic acid] | – | 170 ± 70 | 25.3 ± 2.2 | 111000 ± 7000 | 258 | 305 | 311 | – | 219 | 387 | –
[CH3][Sn]([Cl])([c]1ccccc1)[c]1ccccc1 [DPMT, diphenylmethyltin chloride] | – | – | – | – | – | – | – | – | – | – | necrosis on HeLa cells (HeLa cells [9]): more than 40 % of cells
Cc1cc(O)c2c(c1)C(=O)c1cc(O)cc(O)c1C2=O [Emodin] | slightly more weakly | – | 49.4 ± 19 | 540000 ± 160000 | 42.7 | 81.1 | 138 | 520 ± 100 | – | 110 | –
O=C(O)c1cc(O)c2c(c1)C(=O)c1cccc(O)c1C2=O [Rhein] | strongest ligand | – | – | – | > 1000 | 89.4 | 423 | 20.5 | 157 | 126 | cytotoxic effect against U87 cells (U87 cells [10]): did not found any cytotoxic effect; increase of early apoptosis stage compared to untreated control (EUFA30 cells [11]): approximately 2 fold; increase of late apoptosis compared to untreated control (EUFA30 cells [11]): 15 fold; increase of necrosis compared to untreated control (EUFA30 cells [11]): 11 fold; IC50 (ALKBH3 [12]): 5.3 µM; IC50 (ALKBH3 [7]; as printed in text in nM, 3meC substrate, read-out: IC50 against ALKBH3): 40 nM
